How the values were obtained:
Format in all cases: biochemical
PIP4K2B = target: T1, PIP4K2B (Homo sapiens, UniProt P78356); experiment: Trans-FI P kinase assay PIP4K2B (PIP4KtypeIIB inhibition assay); settings: compounds listed under IC50 bin headings; 100 uM GTP; read-out: Trans-FI P kinase assays: PIP4K2B IC50
T1 construct: made in house; host or cells: E. coli
T1 sequence (P78356 1-416): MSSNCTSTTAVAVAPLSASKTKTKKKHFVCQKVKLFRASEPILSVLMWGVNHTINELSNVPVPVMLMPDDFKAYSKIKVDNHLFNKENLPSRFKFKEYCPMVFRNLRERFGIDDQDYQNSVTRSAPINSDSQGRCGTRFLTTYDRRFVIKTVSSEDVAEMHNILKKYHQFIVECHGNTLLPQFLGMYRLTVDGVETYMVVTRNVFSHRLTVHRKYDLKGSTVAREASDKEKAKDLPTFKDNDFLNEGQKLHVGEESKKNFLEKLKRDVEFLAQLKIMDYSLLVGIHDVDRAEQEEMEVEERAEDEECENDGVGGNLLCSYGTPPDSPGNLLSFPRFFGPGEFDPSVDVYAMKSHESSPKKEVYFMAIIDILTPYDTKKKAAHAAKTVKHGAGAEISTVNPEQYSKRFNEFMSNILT
Outline: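 GST-tagged human PIP4K2B (5 nM, E. coli-expressed) preincubated 1 h at 27 C with compound (top 4.8 uM, 5% DMSO), then reacted 2 h with 100 uM GTP and 80 uM PI5P/DOPE vesicles in HEPES pH 7.3, MgCl2, Triton X-100. GDP detected by Transcreener FI fluorescence via calibration curve; IC50 from % activity vs log[inhibitor].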

PIP4K 2A [1] = target: T2, PIP4K 2A (Homo sapiens, UniProt P48426); experiment: Kinase Assay PIP4K2 A (PIP4KtypeIIA inhibition assay); set-up: made in house; host or cells: E. coli; settings: compounds listed under IC50 bin headings
T2 sequence (P48426 1-406): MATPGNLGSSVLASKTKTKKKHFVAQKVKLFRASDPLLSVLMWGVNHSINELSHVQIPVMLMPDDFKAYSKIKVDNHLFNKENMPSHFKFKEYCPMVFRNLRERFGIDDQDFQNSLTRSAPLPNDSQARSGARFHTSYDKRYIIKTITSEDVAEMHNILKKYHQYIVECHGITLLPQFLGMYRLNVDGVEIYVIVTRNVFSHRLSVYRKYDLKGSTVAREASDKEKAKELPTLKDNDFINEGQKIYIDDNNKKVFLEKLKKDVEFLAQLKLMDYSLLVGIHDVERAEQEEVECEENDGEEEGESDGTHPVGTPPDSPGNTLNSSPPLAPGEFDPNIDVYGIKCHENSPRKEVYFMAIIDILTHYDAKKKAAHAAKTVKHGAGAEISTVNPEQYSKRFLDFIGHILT
Text: GST tagged PIP4KtypeIIA and B enzymes were overexpressed in E. Coli and purified to >80% homogeneity. Phosphatidyl inositol-5-phosphate (PI5P, Cat. #850152, Avanti Polar Lipids Inc.) was used as the lipid substrate and phosphatidyl ethanolamine (DOPE 18:1, Cat. #850725, Avanti Polar Lipids Inc.) was used as the carrier lipid for assays. Ultrapure ATP and GTP was purchased from Bellbrooke Labs. ADP Glo reagents were obtained from Promega. Transcreener FI reagent was obtained from Bellbrooke labs.
Enzyme preparation: GST-tagged PIP4KtypeIIA (5 uL, 1.43 mg/mL) was diluted (1:10) to 50 uL using HNE buffer. From the 1:10 diluted stock, a 6.4 uL aliquot was diluted further to 5 mL using HNE buffer to yield 5× enzyme stock (2.5 nM).
Lipid Preparation: In a 10 mL pyrex glass vial, 1 ug of PI5P and 1 ug of DOPE were suspended in 2.5 mL of HEPES buffer mix and 2.5 mL of H:E buffer. The contents were mixed and sonicated for 3 min to yield a translucent lipid stock.
Compound Preparation: Compounds were stored as 5 mM stocks in neat DMSO as room temperature in glass vials. 5 mM stocks were diluted to 2 mM and then serially diluted (3×) in neat DMSO in 96 well polypropylene plates. From the serially diluted stocks, 3 uL was delivered into 250 uL of 25% DMSO (in water) to generate 5× compound stocks. Typically, the highest compound conc. was 24 uM.
The assay volume was kept at 25 uL. To each well of the reaction plate, 10 uL of lipid stock (1:1 ratio PI5P:DOPE) was delivered. This was followed by the addition of 5 uL of compound in 25% DMSO. Then, to each well, 5 uL of 2.5 nM (5×) typeIIA enzyme was delivered. The contents were mixed well and incubated for 1 h at 27 C. After 1 h, reaction was initiated by adding 5 uL of 50 uM ATP and the contents were mixed well with a multi-channel pipetteman. The final concentration of the reagents are as follows: 50 mM HEPES, pH 7.3, 10 mM MgCl2, 20 mM NaCl, 0.01% v/v triton-X100, 5% DMSO, 10 uM ATP, 80 uM (2 ug) PI5P, 2 ug DOPE, and 0.5 nM PIP4KIIA. Typically, the highest conc. of compounds was 4.8 uM and the lowest conc. was 0.
After 1 hr, the reaction was quenched by adding 25 uL of ADP Glo reagent. The contents were incubated for 1 hr. Afterwards, 50 uL of kinase detection reagent was delivered. The contents were incubated for another hour. The luminescence was read using Molecular Devices Paradigm plate reader. […] The blanks were averaged and subtracted from all other wells. Using a calibration curve, RLU was converted to uM ADP (product). IC50 was calculated by plotting the residual activity (expressed as % No inhibitor control) vs. log [Inh. conc.]

PIP4K 2A [2] = target: T2, PIP4K 2A; experiment: ADP-glo kinase assay PIP4K 2A; set-up: 4 nM PIP4K2A (full length protein, SignalChem); purchased SignalChem; settings: compounds listed under IC50 bin headings
Outline: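 Full-length PIP4K2A was pre-incubated 15 min at RT with compound in 20 mM MOPS pH 7.2, 25 mM MgCl2, 0.005% Tween 20. The enzyme mix held 4 nM kinase and 100 μM PI(5)P diC8, and ATP was added from a 60 μM solution. After 1 h at RT, ADP-Glo luminescence gave % inhibition versus DMSO, fitted to IC50 over 10 threefold dilutions.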

IC50 (PIP4K2B) [nM]	IC50 (PIP4K 2A [1]) [nM]	IC50 (PIP4K 2A [2]) [nM]	SMILES
10 to 100	≤ 1		CC1Oc2cc(N3CCCC3=O)ccc2-c2cnc(Nc3cncc(C4(C#N)CC4)c3)cc21 (centres unmarked) [Example 39, 1-(5-((5-methyl-8-(2-oxopyrrolidin-1-yl)-5H-chromeno[4,3-c]pyridin-3-yl)amino)pyridin-3-yl)cyclopropane-1-carbonitrile]
10 to 100		10 to 100	CN1CCN(c2cncc(Nc3cc4c(cn3)-c3ccc(N5CCCC5=O)cc3OC4(C)C)c2)S1(=O)=O [Example 186, 1-(5,5-dimethyl-3-((5-(5-methyl-1,1-dioxido-1,2,5-thiadiazolidin-2-yl)pyridin-3-yl)amino)-5H-chromeno[4,3-c]pyridin-8-yl)pyrrolidin-2-one]
1 to 10		≤ 1	CC1(C)Oc2cc(N3CCCC3=O)ccc2-c2cnc(Nc3cnc4c(c3)N3C(=O)CC[C@H]3CO4)nc21 [Example 189, (S)-2-((5,5-dimethyl-8-(2-oxopyrrolidin-1-yl)-5H-chromeno[3,4-d]pyrimidin-3-yl)amino)-6,6a,7,8-tetrahydro-9H-pyrido[2,3-b]pyrrolo[1,2-d][1,4]oxazin-9-one]
1 to 10		≤ 1	CC1(C)Oc2cc(N3CCCC3=O)c(F)cc2-c2cnc(Nc3cnc4c(c3)N3C(=O)CC[C@H]3CO4)nc21 [Example 190, (S)-2-((9-fluoro-5,5-dimethyl-8-(2-oxopyrrolidin-1-yl)-5H-chromeno[3,4-d]pyrimidin-3-yl)amino)-6,6a,7,8-tetrahydro-9H-pyrido[2,3-b]pyrrolo[1,2-d][1,4]oxazin-9-one]
100 to 1000		100 to 1000	COc1ncc(Nc2cc3c(cn2)-c2ccc(N4CCCC4=O)cc2OC3(C)C)cc1NC(C)=O [Example 191, N-(5-((5,5-dimethyl-8-(2-oxopyrrolidin-1-yl)-5H-chromeno[4,3-c]pyridin-3-yl)amino)-2-methoxypyridin-3-yl)acetamide]
10 to 100		1 to 10	CC1Oc2cc(N3CCCC3=O)ccc2-c2cnc(Nc3cncc(NC(=O)c4cccc5[nH]cnc45)c3)cc21 (centres unmarked) [Example 196, N-(5-((5-methyl-8-(2-oxopyrrolidin-1-yl)-5H-chromeno[4,3-c]pyridin-3-yl)amino)pyridin-3-yl)-1H-benzo[d]imidazole-7-carboxamide]
1 to 10		1 to 10	O=C1CCCN1c1ccc(-c2ccc(Nc3cnc4c(c3)N3C(=O)C5(CC5)C[C@H]3CO4)nc2)cc1F [Example 197, (S)-2′-((5-(3-fluoro-4-(2-oxopyrrolidin-1-yl)phenyl)pyridin-2-yl)amino)-6a′,7′-dihydro-6′H,9′H-spiro[cyclopropane-1,8′-pyrido[2,3-b]pyrrolo[1,2-d][1,4]oxazin]-9′-one]
1 to 10		1 to 10	CN(C)C/C=C/C(=O)Nc1ccc(C(=O)Nc2cncc(Nc3cc4c(cn3)-c3ccc(N5CCCC5=O)cc3OC4(C)C)c2)cc1 [Example 198, (E)-N-(5-((5,5-dimethyl-8-(2-oxopyrrolidin-1-yl)-5H-chromeno[4,3-c]pyridin-3-yl)amino)pyridin-3-yl)-4-(4-(dimethylamino)but-2-enamido)benzamide]
10 to 100		1 to 10	CN(C)C/C=C/C(=O)Nc1cccc(CCC(=O)Nc2cncc(Nc3cc4c(cn3)-c3ccc(N5CCCC5=O)cc3OC4(C)C)c2)c1 [Example 199, (E)-N-(3-(3-((5-((5,5-dimethyl-8-(2-oxopyrrolidin-1-yl)-5H-chromeno[4,3-c]pyridin-3-yl)amino)pyridin-3-yl)amino)-3-oxopropyl)phenyl)-4-(dimethylamino)but-2-enamide]
1 to 10		1 to 10	CN(C)C/C=C/C(=O)Nc1ccc(C(=O)Nc2cncc(Nc3cc4c(cn3)-c3ccc(N5CCCC5=O)cc3OC4)c2)cc1 [Example 200, (E)-4-(4-(dimethylamino)but-2-enamido)-N-(5-((8-(2-oxopyrrolidin-1-yl)-5H-chromeno[4,3-c]pyridin-3-yl)amino)pyridin-3-yl)benzamide]
> 1000		> 1000	CC1Oc2cc(N3CCCC3=O)ccc2-c2cncc(Nc3ccncc3)c21 (centres unmarked) [Example 203, 1-(5-methyl-4-(pyridin-4-ylamino)-5H-chromeno[4,3-c]pyridin-8-yl)pyrrolidin-2-one]
10 to 100		1 to 10	CC1Oc2cc(N3CCCC3=O)c(F)cc2-c2cnc(Nc3cnc4c(c3)N3C(=O)[C@](C)(O)C[C@H]3CO4)cc21 (stereo partly drawn) [Example 204, (6aS,8R)-2-((9-fluoro-5-methyl-8-(2-oxopyrrolidin-1-yl)-5H-chromeno[4,3-c]pyridin-3-yl)amino)-8-hydroxy-8-methyl-6,6a,7,8-tetrahydro-9H-pyrido[2,3-b]pyrrolo[1,2-d][1,4]oxazin-9-one]
10 to 100		10 to 100	CC1Oc2cc(N3CCCC3=O)ccc2-c2cnc(Nc3cnc4c(c3)N3C(=O)[C@](C)(O)C[C@H]3CO4)cc21 (stereo partly drawn) [Example 205, (6aS,8R)-8-hydroxy-8-methyl-2-((5-methyl-8-(2-oxopyrrolidin-1-yl)-5H-chromeno[4,3-c]pyridin-3-yl)amino)-6,6a,7,8-tetrahydro-9H-pyrido[2,3-b]pyrrolo[1,2-d][1,4]oxazin-9-one]
1 to 10		≤ 1	CC1Oc2cc(N3CCCC3=O)ccc2-c2cnc(Nc3cnc4c(c3)N3C(=O)C(O)C[C@H]3CO4)cc21 (stereo partly drawn) [Example 206, (6aS)-8-hydroxy-2-((5-methyl-8-(2-oxopyrrolidin-1-yl)-5H-chromeno[4,3-c]pyridin-3-yl)amino)-6,6a,7,8-tetrahydro-9H-pyrido[2,3-b]pyrrolo[1,2-d][1,4]oxazin-9-one]
	≤ 1		Cn1cnnc1-c1ccc2c(c1)OC(C)(C)c1nc(Nc3cnc4c(c3)N3C(=O)CC[C@H]3CO4)ncc1-2 [Example 210, (S)-2-((5,5-dimethyl-8-(4-methyl-4H-1,2,4-triazol-3-yl)-5H-chromeno[3,4-d]pyrimidin-3-yl)amino)-6,6a,7,8-tetrahydro-9H-pyrido[2,3-b]pyrrolo[1,2-d][1,4]oxazin-9-one]

Source: patent US11584763B2, “Chromenopyridine derivatives as phosphatidylinositol phosphate kinase inhibitors” (HIBERCELL, INC., priority 2017, dated 2023)
